Values joined by “and” are separate entries in the source; they are usually repeats but may differ in a detail not shown here. Equal values may be shown once.
Target: Coagulation factor X (Homo sapiens, UniProt P00742)
Test: D3R245

Chain of Coagulation factor X (P00742 41-179 limits assumed): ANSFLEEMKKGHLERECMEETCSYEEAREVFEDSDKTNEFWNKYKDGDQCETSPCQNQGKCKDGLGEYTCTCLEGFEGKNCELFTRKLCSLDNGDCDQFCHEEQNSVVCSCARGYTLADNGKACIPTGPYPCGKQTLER
Chain of Coagulation factor X (P00742 235-488 limits assumed): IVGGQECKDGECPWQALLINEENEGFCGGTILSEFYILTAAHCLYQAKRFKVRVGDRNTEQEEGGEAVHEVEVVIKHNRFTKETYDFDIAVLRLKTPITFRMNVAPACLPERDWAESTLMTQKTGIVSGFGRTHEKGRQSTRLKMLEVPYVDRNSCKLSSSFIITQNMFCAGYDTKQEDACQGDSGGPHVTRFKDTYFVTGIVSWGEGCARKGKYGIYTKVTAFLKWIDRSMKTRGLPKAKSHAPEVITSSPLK

| SMILES | IC50 |
| --- | --- |
| CC(=O)NCCN([C@H]1CCN([C@@H](C)C(=O)N2CCOCC2)C1=O)S(=O)(=O)c1ccc2cc(Cl)ccc2c1 [GTC000041A] | 56.5 nM |
| C[C@@H](C(=O)N1C[C@@H]2C[C@H]1CO2)N1CC[C@H](N(CC(N)=O)S(=O)(=O)c2ccc3cc(Cl)ccc3c2)C1=O [GTC000039A] | 97.3 nM |
| C[C@@H](C(=O)N1CCOCC1)N1CC[C@H](N(CCN2CCOCC2)S(=O)(=O)c2ccc3cc(Cl)ccc3c2)C1=O [GTC000040A] | 8.3 nM |
| C[C@@H](C(=O)N1CCOCC1)N1CC[C@H](N(c2ccccc2)S(=O)(=O)c2ccc3cc(Cl)ccc3c2)C1=O [GTC000033A] | 266 nM |
| C[C@@H](C(=O)N1CCOCC1)N1CC[C@H](N(Cc2ccncc2)S(=O)(=O)c2ccc3cc(Cl)ccc3c2)C1=O [GTC000029A] | 11 nM |
| CCC(=O)CN([C@H]1CCN([C@@H](C)C(=O)N2CCOCC2)C1=O)S(=O)(=O)c1ccc(-c2ccc(Cl)s2)s1 [GTC000010A] | 17 nM |
| C[C@@H](C(=O)N1CCOCC1)N1CC[C@H](N(CCN2CCCC2)S(=O)(=O)c2ccc3cc(Cl)ccc3c2)C1=O [GTC000043A] | 12 nM |
| CCOC(=O)CN([C@H]1CCN([C@@H](C)C(=O)N2CCOCC2)C1=O)S(=O)(=O)c1ccc2cc(Cl)ccc2c1 [GTC000018A] | 358 nM |
| C[C@@H](C(=O)N1CCOCC1)N1CC[C@H](N(CC#N)S(=O)(=O)c2ccc(-c3ccc(Cl)s3)s2)C1=O [GTC000008A] | 28 nM |
| COC(=O)CN([C@H]1CCN([C@@H](C)C(=O)N2CCOCC2)C1=O)S(=O)(=O)/C=C/c1ccc(Cl)cc1 [GTC000013A] | 60 nM |
| CCC(=O)CN([C@H]1CCN([C@@H](C)C(=O)N2CCOCC2)C1=O)S(=O)(=O)c1cc2cc(Cl)ccc2s1 [GTC000027A] | 278 nM |
| CCN([C@H]1CCN([C@@H](C)C(=O)N2CCOCC2)C1=O)S(=O)(=O)c1ccc2cc(Cl)ccc2c1 [GTC000023A] | 54 nM |
| C[C@@H](C(=O)N1CCOCC1)N1CC[C@H](N(CC(N)=O)S(=O)(=O)/C=C/c2ccc(Cl)cc2)C1=O [GTC000030A] | 54 nM |
| Cc1nc(CN([C@H]2CCN([C@@H](C)C(=O)N3CCOCC3)C2=O)S(=O)(=O)c2ccc3cc(Cl)ccc3c2)cs1 [GTC000024A] | 17.5 nM |
| C[C@@H](C(=O)N1CCOCC1)N1CC[C@H](N(CC(=O)O)S(=O)(=O)/C=C/c2ccc(Cl)cc2)C1=O [GTC000017A] | 132 nM |
| C[C@@H](C(=O)N1CCOCC1)N1CC[C@H](N(Cc2ccco2)S(=O)(=O)c2ccc3cc(Cl)ccc3c2)C1=O [GTC000019A] | 68 nM |
| COC(=O)CN([C@H]1CCN([C@@H](C)C(=O)N2CCOCC2)C1=O)S(=O)(=O)c1ccc2cc(Cl)ccc2c1 [GTC000001A] | 10.5 nM |
| C[C@@H](C(=O)N1CCOCC1)N1CC[C@H](N(Cc2cccnc2)S(=O)(=O)c2ccc3cc(Cl)ccc3c2)C1=O [GTC000015A] | 26.3 nM |
| C[C@@H](C(=O)N1CCOCC1)N1CC[C@H](N(Cc2ccoc2)S(=O)(=O)c2ccc3cc(Cl)ccc3c2)C1=O [GTC000014A] | 40 nM |
| CCC(=O)CN([C@H]1CCN([C@@H](C)C(=O)N2CCOCC2)C1=O)S(=O)(=O)c1cc2ccc(Cl)cc2s1 [GTC000025A] | 27 nM |

| SMILES | IC50 |
| --- | --- |
| C[C@@H](C(=O)N1CCOCC1)N1CC[C@H](N(CCN(C)C)S(=O)(=O)c2ccc3cc(Cl)ccc3c2)C1=O [GTC000042A] | 24 nM |
| C[C@@H](C(=O)N1CCOCC1)N1CC[C@H](N(CC(=O)C(C)(C)C)S(=O)(=O)c2ccc3cc(Cl)ccc3c2)C1=O [GTC000021A] | 17 nM |
| C=CCN([C@H]1CCN([C@@H](C)C(=O)N2CCOCC2)C1=O)S(=O)(=O)c1ccc2cc(Cl)ccc2c1 [GTC000004A] | 67 nM |
| C[C@@H](C(=O)N1CCOCC1)N1CC[C@H](N(CC#N)S(=O)(=O)c2ccc3cc(Cl)ccc3c2)C1=O [GTC000003A] | 22.5 nM |
| C[C@@H](C(=O)N1CCOCC1)N1CC[C@H](N(Cc2ccccn2)S(=O)(=O)c2ccc3cc(Cl)ccc3c2)C1=O [GTC000028A] | 8 nM and 12 nM |
| CCC(=O)CN([C@H]1CCN([C@@H](C)C(=O)N2CCOCC2)C1=O)S(=O)(=O)/C=C/c1ccc(Cl)cc1 [GTC000012A] | 60 nM |
| C[C@@H](C(=O)N1CCOCC1)N1CC[C@H](N(CC(N)=O)S(=O)(=O)c2cc3ccc(Cl)cc3s2)C1=O [GTC000026A] | 50 nM |
| C[C@@H](C(=O)N1CCOCC1)N1CC[C@H](N(C)S(=O)(=O)/C=C/c2ccc(Cl)s2)C1=O [GTC000044A] | 405 nM |
| C[C@@H](C(=O)N1CCOCC1)N1CC[C@H](N(CC(N)=O)S(=O)(=O)c2cc3cc(Cl)ccc3s2)C1=O [GTC000031A] | 218 nM |
| C[C@@H]1CN(C(=O)[C@H](C)N2CC[C@H](N(CC(N)=O)S(=O)(=O)c3ccc4cc(Cl)ccc4c3)C2=O)C[C@H](C)O1 [GTC000038A] | 26.5 nM |
| C[C@@H](C(=O)N1CCOCC1)N1CC[C@H](N(CC(=O)O)S(=O)(=O)c2ccc(-c3ccc(Cl)s3)s2)C1=O [GTC000016A] | 24 nM |
| C[C@@H](C(=O)N1CCOCC1)N1CC[C@H](N(CC#N)S(=O)(=O)/C=C/c2ccc(Cl)cc2)C1=O [GTC000011A] | 87.5 nM |
| C[C@@H](C(=O)N1CCOCC1)N1CC[C@H](N(c2ccsc2)S(=O)(=O)c2ccc3cc(Cl)ccc3c2)C1=O [GTC000036A] | 152 nM |
| C[C@@H](C(=O)N1CCOCC1)N1CC[C@H](N(Cc2nccs2)S(=O)(=O)c2ccc3cc(Cl)ccc3c2)C1=O [GTC000020A] | 38 nM |
| C[C@@H](C(=O)N1CCOCC1)N1CC[C@H](N(CC(N)=O)S(=O)(=O)c2ccc(-c3ccc(Cl)s3)s2)C1=O [GTC000032A] | 14 nM |
| C[C@@H](C(=O)N1CCOCC1)N1CC[C@H](N(c2ccc(F)cc2)S(=O)(=O)c2ccc3cc(Cl)ccc3c2)C1=O [GTC000034A] | 170 nM |
| COC(=O)CN([C@H]1CCN([C@@H](C)C(=O)N2CCOCC2)C1=O)S(=O)(=O)c1ccc(-c2ccc(Cl)s2)s1 [GTC000009A] | 15.5 nM |
| C[C@@H](C(=O)N1CCOCC1)N1CC[C@H](N(c2cccnc2)S(=O)(=O)c2ccc3cc(Cl)ccc3c2)C1=O [GTC000037A] | 77 nM |
| C[C@@H](C(=O)N1CCOCC1)N1CC[C@H](N(CC(=O)OC(C)(C)C)S(=O)(=O)c2ccc3cc(Cl)ccc3c2)C1=O [GTC000022A] | 6.5 nM |

Source: BindingDB's records for doi:10.7270/Q2GM865X (D3R/Abbott, 2015)
